{"source": "patent US20230034248A1", "about": "“PLANT STOMATA OPENING PROMOTING AGENT” (OAT Agrio Co., Ltd., priority 2019, published 2023)", "type_in_all_cases": "cell-based", "key": {"[1]": {"system": "lower epidermis of Commelina benghalensis L.", "test": "Stomatal opening promoting activity in a dark place (stomatal aperture of peeled lower epidermis)", "conditions": "for Stomatal Aperture: dark place 3 hours", "experimental": "(§1) The lower epidermis of Commelina benghalensis L. was peeled off, immersed in the stomatal aperture measurement solution, and allowed to stand still in a dark place for 2 hours. Then, the lower epidermis of Commelina benghalensis L. was immersed in test solutions prepared by adding steviol to the stomatal aperture measurement solution to give 100 or 300 μM (final concentration) or in the stomatal aperture measurement solution without the addition of steviol (Comparative Example 1), and allowed to stand still in a bright place for 3 hours. The lower epidermis of Commelina benghalensis L. after immersion in the test solutions was photographed with a digital camera (LCD (Liquid Crystal Display), manufactured by KENIS LIMITED) attached to a microscope (Olympus BH2; objective lens SPlan 10 [manufactured by Olympus Corporation] magnification 200×). The stomatal aperture was measured with measurement software (digital microanalyzer, manufactured by Nippon Polaroid Corporation; Polaroid is the registered trademark). The stomatal aperture was measured for 80 or more stomata, for each addition concentration. The stomatal aperture obtained at each addition concentration was compared with the stomatal aperture obtained without the addition of steviol (0 μM, Comparative Example 1), and statistical analysis was performed by student's t-test.\n(§2) The lower epidermis of Commelina benghalensis L. that had been peeled off was immersed in the stomatal aperture measurement solution, and allowed to stand still in a dark place for 2 hours. Then, the lower epidermis of Commelina benghalensis L. was immersed in test solutions prepared by adding steviol to the stomatal aperture measurement solution to give 200 or 300 μM (final concentration) or in the stomatal aperture measurement solution without the addition of steviol (Comparative Example 4), and allowed to stand still in a dark place for 3 hours. Then, the stomatal aperture was measured as in Example 1.\nas §2, with “stevioside” for “steviol”, “give 100,” for “give”, “5),” for “4),”\nas §2, with “rebaudioside A” for “steviol”, “10, 100, 300,” for “200”, “500” for “300”, “6),” for “4),”\nas §2, with “FARM A” for “steviol”, “a 2,000-, 1,000-,” for “200”, “500-fold dilution” for “300 μM”, “7),” for “4),”"}, "[2]": {"system": "lower epidermis of Commelina benghalensis L.", "test": "Abscisic acid-induced stomatal closure inhibitory activity, first evaluation (stomatal aperture of peeled lower epidermis)", "conditions": "for Stomatal Aperture: 2 hours", "experimental": "as §1\nThe lower epidermis of Commelina benghalensis L. was peeled off, immersed in the stomatal aperture measurement solution, and allowed to stand still in a bright place for 3 hours. Then, the lower epidermis of Commelina benghalensis L. was immersed in test solutions prepared by adding 10 μM (final concentration) of abscisic acid and 400 or 600 μM of steviol to the stomatal aperture measurement solution or in the stomatal aperture measurement solution without the addition of steviol (Comparative Example 8) prepared by adding 10 μM (final concentration) of abscisic acid alone, and allowed to stand still for 2 hours. Then, the stomatal aperture was measured as in Example 1.\n(§3) The lower epidermis of Commelina benghalensis L. was peeled off, immersed in the stomatal aperture measurement solution, and allowed to stand still in a bright place for 3 hours. Then, the lower epidermis of Commelina benghalensis L. was immersed in test solutions prepared by adding 10 μM (final concentration) of abscisic acid and 300 or 800 μM (final concentration) of stevioside to the stomatal aperture measurement solution or in the stomatal aperture measurement solution without the addition of stevioside (Comparative Example 9) prepared by adding 10 μm (final concentration) of abscisic acid alone, and allowed to stand still for 2 hours. Then, the stomatal aperture was measured as in Example 1.\nas §3, with “100, 300,” for “300”, “500” for “800”, “rebaudioside A” for “stevioside”, “10)” for “9)”\nThe lower epidermis of Commelina benghalensis L. was peeled off, immersed in the stomatal aperture measurement solution, and allowed to stand still in a bright place for 3 hours. […]"}, "[3]": {"system": "lower epidermis of Commelina benghalensis L.", "test": "Stomatal opening promoting activity in a bright place (stomatal aperture of peeled lower epidermis)", "conditions": "for Stomatal Aperture: bright place 3 hours, mean±standard deviation", "experimental": "as §1\nThe lower epidermis of Commelina benghalensis L. that had been peeled off was immersed in the stomatal aperture measurement solution, and allowed to stand still in a dark place for 2 hours. Then, the lower epidermis of Commelina benghalensis L. was immersed in test solutions prepared by adding FARM A to the stomatal aperture measurement solution to give a 500- or 250-fold dilution (final concentration) or in the stomatal aperture measurement solution without the addition of FARM A (Comparative Example 2), and allowed to stand still in a bright place for 3 hours. Then, the stomatal aperture was measured as in Example 1."}, "[4]": {"conditions": "addition concentration 300 μM with 10 μM abscisic acid"}}, "data": [{"smiles": "C=C1C[C@@]23CC[C@H]4[C@@](C)(CCC[C@@]4(C)C(=O)O[C@@H]4O[C@H](CO)[C@@H](O)[C@H](O)[C@H]4O)[C@@H]2CC[C@]1(O[C@@H]1O[C@H](CO)[C@@H](O)[C@H](O[C@@H]2O[C@H](CO)[C@@H](O)[C@H](O)[C@H]2O)[C@H]1O[C@@H]1O[C@H](CO)[C@@H](O)[C@H](O)[C@H]1O)C3", "note": "[rebaudioside A]", "values": [{"measurement": "Stomatal Aperture", "setting": "[1]; addition concentration 10 μM", "value": "8.70 ± 0.39", "unit": "μm"}, {"measurement": "Stomatal Aperture", "setting": "[1]; addition concentration 100 μM", "value": "9.53 ± 0.45", "unit": "μm"}, {"measurement": "Stomatal Aperture", "setting": "[1]; addition concentration 300 μM", "value": "11.46 ± 0.55", "unit": "μm"}, {"measurement": "Stomatal Aperture", "setting": "[1]; addition concentration 500 μM", "value": "9.05 ± 0.40", "unit": "μm"}, {"measurement": "stomatal aperture as compared to without the addition (student's t-test)", "setting": "[1]; every concentration (10, 100, 300, 500 μM), dark place", "value": "statistically significant increase in the stomatal aperture"}, {"measurement": "stomatal aperture as compared to without the addition (student's t-test)", "setting": "[2]; 100, 300, or 500 μM with 10 μM abscisic acid", "value": "statistically significant increase in the stomatal aperture"}, {"measurement": "Stomatal Aperture", "setting": "[2]; addition concentration 100 μM with 10 μM abscisic acid", "value": "7.74 ± 2.90", "unit": "μm"}, {"measurement": "Stomatal Aperture", "setting": "[2]; [4]", "value": "9.85 ± 2.57", "unit": "μm"}, {"measurement": "Stomatal Aperture", "setting": "[2]; addition concentration 500 μM with 10 μM abscisic acid", "value": "9.32 ± 2.69", "unit": "μm"}]}, {"smiles": "C=C1C[C@@]23CC[C@H]4[C@@](C)(CCC[C@@]4(C)C(=O)O)[C@@H]2CC[C@]1(O)C3", "note": "[steviol]", "values": [{"measurement": "stomatal aperture as compared to without the addition (student's t-test)", "setting": "[1]; 200 or 300 μM, dark place", "value": "statistically significant increase in the stomatal aperture"}, {"measurement": "Stomatal Aperture", "setting": "[1]; addition concentration 200 μM", "value": "15.00 ± 0.32", "unit": "μm"}, {"measurement": "Stomatal Aperture", "setting": "[1]; addition concentration 300 μM", "value": "11.94 ± 0.42", "unit": "μm"}, {"measurement": "stomatal aperture as compared to without the addition (student's t-test)", "setting": "[3]; 300 μM, bright place", "value": "statistically significant increase in the stomatal aperture"}, {"measurement": "stomatal aperture as compared to without the addition", "setting": "[3]; 100 or 300 μM, bright place", "value": "an increase in the stomatal aperture"}, {"measurement": "Stomatal Aperture", "setting": "[3]; addition concentration 100 μM", "value": "15.16 ± 0.33", "unit": "μm"}, {"measurement": "Stomatal Aperture", "setting": "[3]; addition concentration 300 μM", "value": "16.95 ± 0.37", "unit": "μm"}, {"measurement": "stomatal aperture as compared to without the addition (student's t-test)", "setting": "[2]; 400 or 600 μM with 10 μM abscisic acid", "value": "statistically significant increase in the stomatal aperture"}, {"measurement": "Stomatal Aperture", "setting": "[2]; addition concentration 400 μM with 10 μM abscisic acid", "value": "10.65 ± 0.48", "unit": "μm"}, {"measurement": "Stomatal Aperture", "setting": "[2]; addition concentration 600 μM with 10 μM abscisic acid", "value": "13.27 ± 0.49", "unit": "μm"}]}, {"smiles": "C=C1C[C@@]23CC[C@H]4[C@@](C)(CCC[C@@]4(C)C(=O)O[C@@H]4O[C@H](CO)[C@@H](O)[C@H](O)[C@H]4O)[C@@H]2CC[C@]1(O[C@@H]1O[C@H](CO)[C@@H](O)[C@H](O)[C@H]1O[C@@H]1O[C@H](CO)[C@@H](O)[C@H](O)[C@H]1O)C3", "note": "[stevioside]", "values": [{"measurement": "stomatal aperture as compared to without the addition", "setting": "[1]; 100, 200 or 300 μM, dark place", "value": "an increase in the stomatal aperture"}, {"measurement": "stomatal aperture as compared to without the addition (student's t-test)", "setting": "[1]; 100 or 200 μM, dark place", "value": "statistically significant increase in the stomatal aperture"}, {"measurement": "Stomatal Aperture", "setting": "[1]; addition concentration 100 μM", "value": "6.83 ± 0.23", "unit": "μm"}, {"measurement": "Stomatal Aperture", "setting": "[1]; addition concentration 200 μM", "value": "7.33 ± 0.31", "unit": "μm"}, {"measurement": "Stomatal Aperture", "setting": "[1]; addition concentration 300 μM", "value": "5.81 ± 0.20", "unit": "μm"}, {"measurement": "stomatal aperture as compared to without the addition (student's t-test)", "setting": "[2]; 300 or 800 μM with 10 μM abscisic acid", "value": "statistically significant increase in the stomatal aperture"}, {"measurement": "Stomatal Aperture", "setting": "[2]; [4]", "value": "7.03 ± 0.39", "unit": "μm"}, {"measurement": "Stomatal Aperture", "setting": "[2]; addition concentration 800 μM with 10 μM abscisic acid", "value": "6.49 ± 0.32", "unit": "μm"}]}]}
